Measurements from US20020142287A1, “High throughput assay to detect inhibitors of the map kinase pathway” (priority 2000, published 2002).
“Also recorded” adds a separate entry of the source.

Tests used:
SNB-19 cells [1] = assay: Growth-stimulated induction of c-fos and invasion-associated mRNA in quiescent cells plated into fresh growth media, Northern analysis; format: cell-based, human; conditions: for effect on expression of uPA, GnT-V and c-ets-1 mRNA induced by growth stimulation: 2 and 6 hr after plating into fresh growth media
Experimental: (§1) Procedure for Northern Blot. Surgical specimens were immediately frozen in liquid nitrogen upon resection. Total RNA was isolated from clinical glioma specimens and cultured brain tumor cells using guanidium isothiocyanate followed by […] centrifugation. 10-20 μg of total RNA per tumor cell line per lane were electrophoresed in an agarose-formaldehyde gel and transferred to Duralon nylon membranes (Stratagene, La Jolla, Calif.). After UV cross-linking, the blots were hybridized with a ^32P-radiolabeled cDNA probe synthesized by using a random priming kit (Stratagene, La Jolla, Calif.) and ExpressHyb solution (Clontech, Palo Alto, Calif.). The blots were then exposed to X-OMAT film (Kodak, Rochester, N.Y.) and the films were developed appropriately.
Modulators of the MAPK pathway also modulated the growth-stimulated mRNA expression of c-Fos and invasion-related protein MRNA expression. Quiescent SNB-19 cells were plated in fresh growth media either in the presence of 80 μM PD98059, a MEK/MAPKK inhibitor, or the absence of inhibitor, as a control. Induction was measured by observing MRNA expression over time (FIG. 6).
Quiescent SNB-19 cells were growth induced by plating into fresh growth media for 2 and 6 hr. c-Fos expression was monitored by observing the mRNA levels of the downstream genes uPA, GNT-V, and c-ets-1 (see FIG. 8).

[2] = tested on: c-fos promoter/luciferase gene transfectant (clone 60) of SNB-19 glioma cells; assay: Luciferase mRNA expression in stable c-fos promoter/luciferase gene transfectant, Northern analysis; format: cell-based, human; conditions: 1, 2, 3, 6, and 24 hr in the presence of inhibitor
Experimental: A quiescent c-fos promoter/luciferase gene transfectant (clone 60) was plated into fresh growth media and incubated for 1, 2, 3, 6, and 24 hr in the presence of MEK/MAPKK inhibitors, and the cells were harvested for detection of luciferase mRNA expression by Northern analysis. 10 μg of total RNA per lane were used.
The 498 bp promoter region of the human c-Fos gene was amplified by genomic PCR using sense primer 5′-[…]-3′ (SEQ ID No. 7) and antisense primer 5′-[…]-3′ (SEQ ID No. 8), ligated into the pCR II vector (Invitrogen, San Diego, Calif.). […] Antisense orientation of the c-fos promoter/pCR II plasmid was digested with Hind III and Xho I restriction enzymes and the digested fragment was ligated into the Hind III and Xho I sites of the luciferase vector pGL3-basic (Promega, Madison, Wis.). The c-fos promoter/pGL3 plasmid DNA was digested with Sma I and Xba I and the digested fragment was ligated into the Nru I and Xba I sites of the pcDNA 3 vector (Invitrogen). This final construct contains the luciferase gene under control of the c-fos promoter instead of the control of the CMV promoter. The plasmid DNA was stably transfected into human glioma SNB-19 cells using the cationic liposome system, DOTAP (Boehringer Mannheim, Indianapolis, Ind.). The transfected cells were further cultured for 3 weeks in selection medium containing 800 μg/ml of G418 and then individual clones were isolated with cloning rings. Isolated clones were further cultured for 4 weeks in selection medium and were examined for luciferase gene expression by Northern analysis. […] Three representative clones (34, 56, and 60) were further characterized.
The suppression of luciferase gene expression by inhibitors of MAPK pathway in the stable transfectants was determined.

SNB-19 cells [3] = assay: Suppression of PDBu-mediated mRNA induction by a MAPKK inhibitor, Northern analysis; format: cell-based, human
Experimental: as §1
The assay was modified for use in the identification of compounds that can inhibit gene expression. To identify compounds that may affect the growth, migration or invasivity of tumor cells, the assay described below is provided. To activate the quiescent cells, SNB-19 glioma cells are cultured in the presence of 150 nM Phorbol 12, 13-dibutyrate (PDBu, Sigma Chemical Co.) for 24 hr. The cells are then contacted with a test compound that may affect expression of GnT-V, c-ets-1, uPA, MMP-1, or MMP-3. Compounds shown to inhibit expression of any, multiple, or all of the sequences are selected for further study. […]

[4] = tested on: c-Fos protein in SNB-19 cells; assay: Growth-stimulated c-Fos protein induction, Western blot; format: cell-based, human; conditions: 50 μM U0126, 1 μM FTI, 50 μM PD98059; for c-Fos protein induction: 0.5-8 hr after plating
Experimental: Quiescent SNB-19 cells were plated into fresh growth media and incubated for 0.5, 1, 2, 3, 4, 6, and 8 hr in the presence of inhibitors of the MAPK pathway, and the cells were harvested for c-Fos protein analysis by Western blot. 20 μg of total protein per lane were used. c-Fos protein induction without inhibitors was shown as a control.
Procedure for Western Blot. To detect c-Ets-1 and c-Fos protein expression in brain tumor cell lines, 20 μg of protein cell lysates were loaded on a 8% SDS-polyacrylamide gel immediately after boiling each sample in the presence of 2% mercaptoethanol. After electrophoresis, proteins were transferred to a PVDF membrane and the membrane was blocked with 5% BSA in PBS. The membrane was then incubated with either a 1:10,000 dilution of monoclonal anti-human c-Ets-1 antibody (Clone 47, Transduction Laboratory, Ky.) or anti-human c-Fos antibody (Santa Cruz Biotechnology, Inc.) in Tris-buffered saline pH 7.4 (TBS) containing 2% BSA and 0.1% Tween 20 for 1 h at room temperature. The membrane was then washed with TBS containing 2% BSA and 0.1% Tween 20 for 10 min, followed by washing twice with 0.1% Tween 20 in TBS. Next, the membrane was incubated with a 1:10000 dilution of horseradish peroxidase-conjugated anti-mouse IgG (Amersham, UK) for 1 h at room temperature in 2% BSA in TBS containing 0.1% Tween 20. The membrane was then washed as described above, and developed with the ECL Chemiluminescence detection system (Amersham, UK) according to manufacturer's instructions.

SNB-19 cells [5] = assay: Induction of invasion-associated gene mRNA by phorbol ester, Northern analysis; format: cell-based, human; conditions: 150 nM PDBu, 24 hr incubation
Experimental: as §1
The effects of a test compound, a phorbol ester (a Protein Kinase C (PKC) activator), on the coordinated expression of a panel of sequences was determined. SNB-19 cells were cultured in the presence of 150 nM phorbol 12, 13-dibutyrate (PDBu, Sigma Chemical Co.) for 24 hr. Expression of GnT-V, c-ets-1, uPA, MMP-1, and MMP-3 mRNA was then assayed by northern blot on total RNA from the cells. A panel of nucleic acid probes corresponding to GnT-V, c-ets-1, uPA, MMP-1, and MMP-3 were prepared as described above and utilized to detect expression of the corresponding mRNA in treated or untreated SNB-19 cells. […]

SNB-19 glioma cells = conditions: data not shown
[6] = tested on: p42/p44 ERK/MAPK proteins; conditions: 50 μM U0126, SNB-19 cells
Experimental: Quiescent SNB-19 cells were plated into fresh growth media and incubated for 0.5, 1, 2, 3, 4, 6, and 8 hr, and the cells were harvested for Northern analysis (FIG. 10A-10C) and Western blot analysis (FIG. 10D).

MEK/MAPK Kinase (MAPKK) = conditions: cited from earlier work

## COc1cccc(-c2cc(=O)c3ccccc3o2)c1N [PD98059, 2′-amino-3′-methoxyflavone]
SNB-19 cells [1]; 80 μM PD98059, 0.5-8 hr after plating into fresh growth media
  growth-stimulated induction of c-fos, c-ets-1, GnT-V, and uPA mRNA expression: suppression; also recorded: suppressed
[2]
  luciferase mRNA expression: slightly suppressed
[2]; listed as PD98056
  luciferase mRNA expression: suppress
SNB-19 cells [3]; 150 nM PDBu 24 hr, 15 and 80 μM PD98059, 15 μM
  PDBu-induced GnT-V, c-ets-1, MMP-1, and MMP-3 mRNA induction (b19 also uPA): completely abolished
SNB-19 cells [3]; 150 nM PDBu, PD98059 15 and 80 μM
  uPA mRNA expression in PDBu-stimulated cells: decreased in a dose-dependent manner
[4]
  potency of inhibition of c-Fos protein induction (rank order): 50 μM U0126>1 μM FTI>50 μM PD98059
  c-Fos protein induction: weak suppression

## COc1cc2ncnc(Nc3cccc(Br)c3)c2cc1OC [PD153035]
SNB-19 cells [1]
  effect on expression of uPA, GnT-V and c-ets-1 mRNA induced by growth stimulation: no effect

## CCCC(=O)O[C@@H]1[C@@H](C)[C@@]2(O)[C@@H](C=C(CO)C[C@]3(O)C(=O)C(C)=C[C@@H]23)[C@@H]2C(C)(C)[C@]12OC(=O)CCC [PDBu, Phorbol 12, 13-dibutyrate]
SNB-19 cells [5]
  induction of GnT-V, c-ets-1, uPA, MMP-1, and MMP-3 mRNA expression: marked induction; also recorded: induced

## N#CC(=C(/N)Sc1ccccc1N)/C(C#N)=C(\N)Sc1ccccc1N [U0126]
SNB-19 cells [1]; 50 μM U0126, 0.5-8 hr after plating into fresh growth media
  growth-stimulated induction of GnT-V, uPA and c-ets-1 mRNA expression: strongly suppressed; also recorded: suppressed the induction
SNB-19 glioma cells
  adhesion-mediated protein tyrosine phosphorylation: little effect
[2]
  luciferase mRNA expression: greatly suppressed; also recorded: greater inhibition
[6]
  phosphorylation of p42/p44 ERK/MAPK: completely inhibited
MEK/MAPK Kinase (MAPKK)
  potency as MEK/MAPKK inhibitor relative to PD98059: 30 times
[4]
  potency of inhibition of c-Fos protein induction (rank order): 50 μM U0126>1 μM FTI>50 μM PD98059
  c-Fos protein induction: completely inhibited

## COC[C@H]1OC(=O)c2coc3c2[C@@]1(C)C1=C(C3=O)[C@@H]2CCC(=O)[C@@]2(C)C[C@H]1OC(C)=O [Wortmannin]
SNB-19 cells [1]
  effect on expression of uPA, GnT-V and c-ets-1 mRNA induced by growth stimulation: no effect
